One block for each molecule: values may come before it.
Experiments:
[1] = biological target: T1, SFXN1 Sideroflexin-1 (Homo sapiens, UniProt Q9H9B4); test: competitive isoTOP-ABPP; format: binding; conditions: for isoTOP-ABPP reactivity ratio at lysine Q9H9B4_K170 / isoTOP-ABPP ratio (R) at liganded lysine Q9H9B4_K170: 50 uM, in vitro; for isoTOP-ABPP reactivity ratio at lysine Q9H9B4_K170: 231 sol; for isoTOP-ABPP ratio (R) at liganded lysine Q9H9B4_K170: sol, 231
T1 construct: endogenous in cells; host or cells: MDA-MB-231 lysate
T1 sequence (Q9H9B4 1-322): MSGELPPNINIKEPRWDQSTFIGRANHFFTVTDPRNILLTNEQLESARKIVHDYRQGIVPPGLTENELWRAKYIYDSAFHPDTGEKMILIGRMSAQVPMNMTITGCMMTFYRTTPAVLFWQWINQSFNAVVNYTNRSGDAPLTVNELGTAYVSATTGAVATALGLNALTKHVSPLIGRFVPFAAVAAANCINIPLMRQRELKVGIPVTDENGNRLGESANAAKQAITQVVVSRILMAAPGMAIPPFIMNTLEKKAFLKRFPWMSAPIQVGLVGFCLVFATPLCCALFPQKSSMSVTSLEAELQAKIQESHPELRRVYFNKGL
Method in brief: (§1)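 Readout: isotopic light/heavy MS1 peak-area ratio (R, DMSO heavy over compound light), median across peptides sharing a modified lysine. Lysate received fragment (activated esters 50 μM, guanidinylating agents 100 μM final) or DMSO, then 0.1 mM STP-alkyne probe for 1 h at ambient temperature.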

[2] = biological target: T2, MTHFD1 C-1-tetrahydrofolate synthase, cytoplasmic (Homo sapiens, UniProt P11586); test: competitive isoTOP-ABPP; format: binding; conditions: for isoTOP-ABPP reactivity ratio at lysine P11586_K760 / isoTOP-ABPP ratio (R) at liganded lysine P11586_K760: 50 uM, in vitro; for isoTOP-ABPP reactivity ratio at lysine P11586_K760: 231 sol; for isoTOP-ABPP ratio (R) at liganded lysine P11586_K760: sol, 231
T2 construct: isoTOP-ABPP experiments performed in cell lysates (in vitro); endogenous in cells; host or cells: MDA-MB-231 soluble lysate
T2 sequence (P11586 1-935): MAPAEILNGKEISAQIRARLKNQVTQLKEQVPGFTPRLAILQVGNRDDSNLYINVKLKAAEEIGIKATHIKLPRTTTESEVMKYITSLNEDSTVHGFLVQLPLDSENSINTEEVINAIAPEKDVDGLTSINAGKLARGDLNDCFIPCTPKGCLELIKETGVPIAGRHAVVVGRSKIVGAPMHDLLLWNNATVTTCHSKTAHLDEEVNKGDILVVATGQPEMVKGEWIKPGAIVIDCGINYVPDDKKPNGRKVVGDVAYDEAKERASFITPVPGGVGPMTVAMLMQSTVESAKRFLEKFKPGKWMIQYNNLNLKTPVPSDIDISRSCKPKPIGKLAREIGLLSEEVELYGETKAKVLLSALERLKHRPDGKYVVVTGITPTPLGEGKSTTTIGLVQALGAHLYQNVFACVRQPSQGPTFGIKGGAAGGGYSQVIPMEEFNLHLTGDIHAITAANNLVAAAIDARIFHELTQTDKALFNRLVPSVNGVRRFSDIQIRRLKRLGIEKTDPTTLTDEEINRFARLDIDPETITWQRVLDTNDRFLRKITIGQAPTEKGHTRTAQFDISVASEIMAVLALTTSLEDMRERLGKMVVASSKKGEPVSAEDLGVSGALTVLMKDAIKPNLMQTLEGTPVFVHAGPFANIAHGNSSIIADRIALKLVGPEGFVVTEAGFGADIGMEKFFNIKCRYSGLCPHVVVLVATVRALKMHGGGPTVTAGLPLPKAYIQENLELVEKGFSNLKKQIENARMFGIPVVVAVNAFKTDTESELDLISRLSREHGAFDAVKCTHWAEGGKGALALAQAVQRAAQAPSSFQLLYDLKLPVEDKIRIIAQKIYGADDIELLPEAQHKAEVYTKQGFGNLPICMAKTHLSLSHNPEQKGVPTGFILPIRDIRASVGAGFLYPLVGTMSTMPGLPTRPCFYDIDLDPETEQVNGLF
Method in brief: as §1

SMILES: O=C(CCc1cn(-c2ccccc2)nc1-c1ccccc1)Oc1ccc([N+](=O)[O-])cc1[N+](=O)[O-] [fragment 29, 2,4-Dinitrophenyl 3-(1,3-diphenyl-1H-pyrazol-4-yl)propanoate]
isoTOP-ABPP reactivity ratio at lysine Q9H9B4_K170 [1]: 20.0

SMILES: O=C(Oc1ccc([N+](=O)[O-])cc1[N+](=O)[O-])C(c1ccccc1)c1ccccc1 [fragment 30, 2,4-Dinitrophenyl 2,2-diphenylacetate]
isoTOP-ABPP reactivity ratio at lysine P11586_K760 [2]: 0.9 | isoTOP-ABPP reactivity ratio at lysine Q9H9B4_K170 [1]: 4.5

SMILES: O=C(Oc1ccc([N+](=O)[O-])cc1[N+](=O)[O-])c1cc(C(F)(F)F)cc(C(F)(F)F)c1 [fragment 31, 2,4-Dinitrophenyl 3,5-bis(trifluoromethyl)benzoate]
isoTOP-ABPP reactivity ratio at lysine P11586_K760 [2]: 0.8

SMILES: Cn1cc(CC(=O)Oc2ccc([N+](=O)[O-])cc2[N+](=O)[O-])c2ccccc21 [fragment 32, 2,4-Dinitrophenyl 2-(1-methyl-1H-indol-3-yl)acetate]
isoTOP-ABPP reactivity ratio at lysine P11586_K760 [2]: 0.6 | isoTOP-ABPP reactivity ratio at lysine Q9H9B4_K170 [1]: 8.6

SMILES: O=C(CC12CC3CC(CC(C3)C1)C2)Oc1ccc([N+](=O)[O-])cc1[N+](=O)[O-] [fragment 38, 2,4-Dinitrophenyl 2-(adamantan-1-yl)acetate]
isoTOP-ABPP ratio (R) at liganded lysine P11586_K760 [2]: 1.3 | isoTOP-ABPP ratio (R) at liganded lysine Q9H9B4_K170 [1]: 1.9

SMILES: CC(C)(C)OC(=O)NCCCC(=O)Oc1ccc([N+](=O)[O-])cc1[N+](=O)[O-] [fragment 41, 2,4-Dinitrophenyl 4-((tert-butoxycarbonyl)amino)butanoate]
isoTOP-ABPP ratio (R) at liganded lysine P11586_K760 [2]: 4.2 | isoTOP-ABPP ratio (R) at liganded lysine Q9H9B4_K170 [1]: 2.5

SMILES: N#Cc1ccc(C(=O)Oc2ccc([N+](=O)[O-])cc2[N+](=O)[O-])cc1 [fragment 44, 2,4-Dinitrophenyl 4-cyanobenzoate]
isoTOP-ABPP ratio, lysine Q9H9B4_K170 ([1]; 50 uM_231_sol_in vitro): 0.9

SMILES: O=C(CCc1ccc2c(c1)OCO2)Oc1ccc([N+](=O)[O-])cc1[N+](=O)[O-] [fragment 45, 2,4-Dinitrophenyl 3-(benzo[d][1,3]dioxol-5-yl)propanoate]
isoTOP-ABPP ratio, lysine Q9H9B4_K170 ([1]; 50 uM_231_sol_in vitro): 2.1

SMILES: O=C(ON1C(=O)CCC1=O)c1cc(C(F)(F)F)cc(C(F)(F)F)c1 [fragment 46, 3,5-Bis(trifluoromethyl)benzoic acid NHS ester]
isoTOP-ABPP ratio, lysine Q9H9B4_K170 ([1]; 50 uM_231_sol_in vitro): 0.9

isoTOP-ABPP ratio, lysine P11586_K760 ([2]; 100 uM_231_sol_in vitro): 0.6 | isoTOP-ABPP ratio, lysine Q9H9B4_K170 ([1]; 100 uM_231_sol_in vitro): 1.9
SMILES: CC(C)(C)OC(=O)N=C(NC(=O)OC(C)(C)C)n1cccn1 [fragment 50, reference compound]

From US20210255193A1, “LYSINE REACTIVE PROBES AND USES THEREOF” (The Scripps Research Institute, priority 2017, published 2021)
